US9187411B2, “Leukotriene B4 antagonist compound” (Eli Lilly and Company, priority 2012, dated 2015)

Target: T1, PPARγ (Homo sapiens, UniProt P37231)
T1 construct: made in house; host or cells: Sf9 insect cells (baculovirus), crude cell lysate
T1 sequence (P37231 1-505): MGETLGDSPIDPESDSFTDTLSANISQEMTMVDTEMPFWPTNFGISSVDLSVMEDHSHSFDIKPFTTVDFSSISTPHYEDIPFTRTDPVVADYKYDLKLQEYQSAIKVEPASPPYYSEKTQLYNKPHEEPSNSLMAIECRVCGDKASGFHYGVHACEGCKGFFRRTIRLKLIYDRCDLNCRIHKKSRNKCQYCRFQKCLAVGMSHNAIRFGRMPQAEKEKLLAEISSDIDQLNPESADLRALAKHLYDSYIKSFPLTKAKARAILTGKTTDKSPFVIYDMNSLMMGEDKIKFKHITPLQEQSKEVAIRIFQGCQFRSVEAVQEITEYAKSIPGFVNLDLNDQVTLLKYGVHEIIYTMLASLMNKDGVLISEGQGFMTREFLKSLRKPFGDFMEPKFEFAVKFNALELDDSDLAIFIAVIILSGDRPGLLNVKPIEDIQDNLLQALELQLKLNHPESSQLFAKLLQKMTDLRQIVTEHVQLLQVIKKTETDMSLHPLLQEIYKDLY
T1 sequence (P19793 1-462 partner): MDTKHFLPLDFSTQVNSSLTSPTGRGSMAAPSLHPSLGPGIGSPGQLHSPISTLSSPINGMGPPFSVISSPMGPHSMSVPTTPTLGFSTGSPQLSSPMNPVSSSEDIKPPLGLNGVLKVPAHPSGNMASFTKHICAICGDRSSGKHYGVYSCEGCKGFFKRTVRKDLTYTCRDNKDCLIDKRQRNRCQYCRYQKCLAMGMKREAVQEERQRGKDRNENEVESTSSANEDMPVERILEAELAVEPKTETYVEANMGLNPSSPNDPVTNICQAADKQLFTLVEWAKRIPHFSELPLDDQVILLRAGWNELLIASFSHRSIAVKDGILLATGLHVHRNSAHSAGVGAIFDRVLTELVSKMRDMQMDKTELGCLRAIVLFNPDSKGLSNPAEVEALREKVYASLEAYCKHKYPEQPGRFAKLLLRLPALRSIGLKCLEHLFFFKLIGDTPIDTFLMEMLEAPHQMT
Assay: PPAR gamma binding assay (SPA)
Details: n=2, read-out: Ki PPAR γ binding
Source text: The nucleotide sequences encoding full-length PPARα receptor DNA (National Center for Biotechnology Information (NCBI) Reference Sequence NM_005036.4), PPARδ receptor DNA (NCBI Reference Sequence NM_006238.4), PPARγ receptor DNA (NCBI Reference Sequence NM_015869.4) and Retinoid X Receptor (RXR) α DNA (NCBI Reference Sequence NM_002957.4) are synthesized and inserted into pFastBacHTb (Invitrogen) vector in-framed with the N-terminal HIS tag from the vector. […] The protein concentration is determined by Bradford assay using BSA as the standard.
Binding Affinities of Compounds for the PPAR α, δ, γ Receptors are Assessed Using Scintillation Proximity Assay (SPA) Technology.
Biotinylated oligonucleotide(DR2) ^5′[…]^3′ (SEQ ID NO: 1) is used for binding of receptors to Yttrium silicate streptavidin-coated SPA beads (Perkin Elmer). The PPAR α, δ, γ and Retinoid X Receptor (RXR) α receptors (endogenously expressed as heterodimers) are cell lysates from Baculovirus expression systems in Sf9 cells. […] Non-specific binding is determined in the presence of 10000 nM unlabeled GW2331 (Kliewer, S. A. et al Proc. Natl. Acad. Sci. USA (1997), 94: 4318-4323) for the alpha and delta receptors and 2-methyl-2-[4-[3-[propyl[(5-pyridin-2-ylthiophen-2-yl)sulfonyl]amino]-propyl]phenoxy]propanoic (WO 2004/073606) for the gamma receptor. […]

Compound CCCc1c(NC(=O)CC(C)(C)C(=O)[O-])cccc1OCCCOc1cc(O)c(-c2ccc(F)cc2)cc1CC.[Na+] [Example 2, Sodium 4-[[3-[3-[2-ethyl-4-(4-fluorophenyl)-5-hydroxy-phenoxy]propoxy]-2-propyl-phenyl]amino]-2,2-dimethyl-4-oxo-butanoate] has a Ki of 1380 nM.
